≈ marks a conversion by molar mass, not a printed value. Marks after values point to notes of the source that are not given here.
Legend:
[1] = test system: nisin sensitive L. lactis strain MG1614; conditions: colony overlay assay; plasmid complementation; cited from earlier work
[2] = test system: Lactobacillus helveticus CH-1; conditions: plate diffusion bioassay; plasmid-encoded nisA gene complementing nisA deficiency in host strain FI7332; cited from earlier work
[3] = test system: sensitive L. Lactis strain MG1614; test: Minimum inhibitory concentration (MIC); assay type: cell-based; conditions: Table 5
[4] = test system: Lactobacillus helveticus CH-1; test: Plate diffusion bioassay of cell-free extracts / culture supernatants; assay type: cell-based
Method: 150 μl samples of cell free extracts from strains: 4, FI5876; 5, FI7990; 6, FI8070; 7, FI8198; 8, FI8199 were loaded into wells bored in MRS agar seeded with the indicator strains Lactobacillus helveticus CH-1. Plates were incubated overnight at 42° C. Standards included on the assay plate are: 1,50; 2,100; 3,200; 9,300; 10,400 U/ml.
(§1) Nisin activity in Lactococcal strains was assayed by both deferred and direct means. Plate diffusion bioassays were performed as previously described (Dodd et al (1992) Appl. Environ. Microbiol. 58, 3683-3693. Colonies growing on the surface of a GM17 plate were directly assayed by inverting over chloroform for 12 minutes and overlaying with agar seeded with the nisin sensitive L. lactis strain MG1614. Plates were incubated overnight and zone sizes around colonies compared with those of controls. Nisin immunity was determined by streaking cultures on a series of GM17 agar plates containing an increasing concentration of nisin and assessing the degree of growth at the different nisin levels. Control cultures (FI5876, positive) and MG1614 (negative) were included on each plate.
This corresponds to an increase of approximately 50% of nisin A levels, under the conditions used here (Table 1). This higher level of production was not found in the extracts of FI8199, producing the double mutant nisin A/Dha5A,Dha33A. […] In all cases the yield for a particular nisin variant was higher when using this gene replacement strategy than when the equivalent plasmid-encoded gene was employed in a plasmid complementation system (Table 3, Dodd et al (1992) (1993) supra).

[5] = test system: sensitive indicator strains; conditions: work described in WO 93/20213; cited from earlier work
FI7847 [nisA-(fs)] [6] = test: Induction by nisin / nisin variants as inducing agent; assay type: cell-based, L. lactis; set-up: Induction: unit not given here; conditions: strain FI7847
Method: A particularly preferred embodiment of the third aspect of the invention is wherein the cells are cultured in the presence of nisA nisin or a variant nisin which can induce nisin expression. […] By adding sub-inhibitory concentrations of nisin to the growth medium, during fermentation, higher levels of the variant nisin are produced. Any variants that are less efficient as inducing agents benefit from the inclusion of nisin in the growth medium (ie a nisin induction step in the purification procedure). The amount of induction varies depending on the initial induction capacity of any particular variant (with I30W nisin A production more than doubled as a result of induction). Induction may be routinely included in the method as a means of maximising production levels. Any concerns about contamination with the wild type molecule are minimal as the nisin concentration required for induction is negligible compared to the amount of nisin variant being purified. Conveniently, the nisA nisin is a minimum amount that provides maximal induction of nisin production. This amount can be determined empirically by a person skilled in the art. Suitable nisA nisin concentrations for induction in this embodiment are from 1 nM to 500 nM, preferably 10 nM to 250 nM, more preferably 50 nM to 150 nM, most preferably 100 nM.
In some circumstances it is desirable to add nisA nisin as an inducer.

FI8003 (nisA) = test: Nisin immunity on GM17 agar plates with increasing nisin; assay type: cell-based, L. lactis; conditions: nisin level tolerated by strain FI8003 nisA (BamHI site in promoter)
Method: as §1
A possible explanation for the difference in nisin sensitivity of these two Nis^− strains came from gene replacement studies involving the vector pFI740 (FIG. 2d). […] The only difference between the two sequences involved is that pFI740 has an additional BamHI site incorporated 80 bp upstream of the ATG start codon of nisA, and a BglII site immediately downstream of the coding region (FIG. 4). […] A single base pair change introduced as a result of engineering the BamHI site has the effect of converting the -35 sequence from CTGATT to CCGATT (FIG. 4).

FI8199 (nisA/S5A,S33A) = test: as above; assay type: cell-based, L. lactis; conditions: nisin level tolerated by strain FI8199 nisA/S5A
Method: as §1

FI7893 (nisA) = test: as above; assay type: cell-based, L. lactis; conditions: nisin level tolerated by strain FI7893 nisA
Method: as §1

FI8198 (nisA/S33A) = test: as above; assay type: cell-based, L. lactis; conditions: nisin level tolerated by strain FI8198 nisA/S33A
Method: as §1

MG1614 = test: as above; assay type: cell-based, L. lactis; conditions: nisin level tolerated by strain MG1614
Method: as §1

FI8070 (nisA/S5A) = test: as above; assay type: cell-based, L. lactis; conditions: nisin level tolerated by strain FI8070 nisA/S5A
Method: as §1

FI7990 (ΔnisA) = test: as above; assay type: cell-based, L. lactis; conditions: nisin level tolerated by strain FI7990 ΔnisA
Method: as §1
(§2) The effect of disruption of the nisA gene on immunity of the host strain to nisin has been described previously (Dodd et al (1992) supra). […] The nisA deleted strain FI7990 was sensitive to nisin at a concentration of between 250 and 500 U/ml compared to the parent strain, FI5876, which will continue growing in the presence of nisin to over 1000 U/ml.

FI7847 [nisA-(fs)] [7] = test: as above; assay type: cell-based, L. lactis; conditions: nisin level tolerated by strain FI7847 nisA-(fs)
Method: as §1, §2

FI5876 = test: as above; assay type: cell-based, L. lactis
Method: as §1, §2

Row | Compound | antimicrobial activity, plasmid-encoded gene complementing nisA deficiency [1] | nisin activity (% of wild type), complementation [2] | MIC [3] | Activity (% of wt) ([4]; antimicrobial activity in culture supernatants of gene-replaced strains, plate diffusion bioassays) | zone of inhibition / inhibitory effect compared with parent strain FI5876 ([4]; cell extracts of gene-replaced strains, plate diffusion bioassay) | nisin activity (% of wild type), gene replacement ([4]; plate diffusion bioassay, functional nisA gene incorporated in the chromosome of FI7990 in place of nisA deletion) | antimicrobial activity against sensitive indicator strains [5] | Induction (FI7847 [nisA-(fs)] [6]; inducing agent at 100 ng ml^−1) | Induction (FI7847 [nisA-(fs)] [6]; inducing agent at 1 mg ml^−1) | Immunity (FI8003 (nisA)) | Immunity (FI8199 (nisA/S5A,S33A)) | Immunity (FI7893 (nisA)) | Immunity (FI8198 (nisA/S33A)) | Immunity (MG1614) | Immunity (FI8070 (nisA/S5A)) | Immunity (FI7990 (ΔnisA)) | Immunity (FI7847 [nisA-(fs)] [7]) | Immunity (FI5876; nisin level tolerated by strain FI5876 (wild type)) | nisin concentration at which the strain continues growing (FI5876; parent strain FI5876)
1 | C/C=C(\NC(=O)[C@@H](N)[C@@H](C)CC)C(=O)N[C@@H]1CSC[C@@H](C(=O)N[C@H]2C(=O)N3CCC[C@H]3C(=O)NCC(=O)N[C@H](C(=O)N[C@@H](CCCCN)C(=O)N[C@H]3C(=O)NCC(=O)N[C@@H](C)C(=O)N[C@@H](CC(C)C)C(=O)N[C@@H](CCSC)C(=O)NCC(=O)N[C@H](C(=O)N[C@@H](CC(N)=O)C(=O)N[C@@H](CCSC)C(=O)N[C@@H](CCCCN)C(=O)N[C@H]4C(=O)N[C@@H](C)C(=O)N[C@H]5C(=O)N[C@@H](CS[C@H]4C)C(=O)N[C@@H](Cc4c[nH]cn4)C(=O)N[C@H](C(=O)N[C@@H](CO)C(=O)N[C@H](C(=O)N[C@@H](Cc4c[nH]cn4)C(=O)N[C@H](C(=O)N[C@@H](C)C(=O)N[C@@H](CCCCN)C(=O)O)C(C)C)[C@@H](C)CC)CS[C@H]5C)CS[C@H]3C)CS[C@H]2C)NC(=O)[C@H](CC(C)C)NC(=O)[C@H](C)NC(=O)[C@H]([C@@H](C)CC)NC1=O [nisin A (Dha5A, Dha33A)] | only detected in the more sensitive colony overlay assay | <1^d % of wild type | 1000 µg/mL (≈ 298 µM) | 100 % of wt | equivalent that of nisin A containing the single mutation and also the wild type molecule | 100 % of wild type | retained their antimicrobial activity | 34 | 106 | – | – | – | – | – | – | – | – | – | –
2 | nisin | – | – | – | – | – | – | – | – | – | 0.25-0.5 U/ml × 10^3 | >1 U/ml × 10^3 | >1 U/ml × 10^3 | >1 U/ml × 10^3 | 0.01 U/ml × 10^3 | >1 U/ml × 10^3 | 0.25-0.5 U/ml × 10^3 | 0.5-0.75 U/ml × 10^3 | >1 U/ml × 10^3 | over 1000 U/ml
